Laboratory results published in US20120270183A1, “METHOD OF TREATING AND/OR PREVENTING CONDITIONS CAUSED BY MICROORGANISMS USING AN ORAL LIGHT DEVICE” (COLGATE-PALMOLIVE COMPANY, priority 2009, published 2012).
Entries after “also recorded” stand apart in the source; their conditions may differ.

Test system: biofilm of A. naeslundi
Assay: Biofilm reduction by photosensitizer plus light
Format: cell-based
Conditions: 0.1% photosensitizer in the presence of light
Procedure: Bacterial biofilms (24 h old) were treated with the photosensitizers or photo-triggered actives described in the tables below at a concentration less than their minimum inhibitory concentration (MIC). The actives were either pre-incubated before light exposure for 2 s to 15 min, typically less than 2 min, or administered at the same time the biofilm was exposed to the light. The bacteria were irradiated at a set wavelength for 2 s to 15 min (typically less than 2 min) at an energy dose between 1-450 J/cm^2. Optical power densities typically ranged from 1-500 mW/cm^2. Light was either pulsed or provided in one continuous light exposure. Pulsed light treatments were preferred for high optical energy treatments.
On a biofilm of A. naeslundi, the impact of four “photosensitizers” (0.1% concentration) in the presence of light was evaluated. MIC typically ranged from 0.0001% (w/v) to 1% (w/v). The percent biofilm reduction is tabulated below.

Compound	Biofilm reduction compared to light alone (in words)
Cc1cc2nc3c(=O)[nH]c(=O)nc-3n(C[C@H](O)[C@H](O)[C@H](O)CO)c2cc1C [Riboflavin]	increased biofilm reduction compared to light alone
CN(C)c1ccc(C(=C2C=CC(=[N+](C)C)C=C2)c2c(O)c(S(=O)(=O)[O-])cc3cc(S(=O)(=O)[O-])ccc23)cc1.[Na+] [Lissamine Green B]	increased biofilm reduction compared to light alone
O=C([O-])C1=NN(c2ccc(S(=O)(=O)[O-])cc2)C(=O)C1N=Nc1ccc(S(=O)(=O)[O-])cc1.[Na+].[Na+].[Na+] (stereo not drawn) [Tartrazine]	increased biofilm reduction compared to light alone
CCN(Cc1cccc(S(=O)(=O)[O-])c1)c1ccc(C(=C2C=CC(=[N+](CC)Cc3cccc(S(=O)(=O)[O-])c3)C=C2)c2ccc(O)cc2S(=O)(=O)[O-])cc1.[Na+].[Na+] [Fast Green, Fast Green FCF]	increased biofilm reduction compared to light alone
COc1cc(S(=O)(=O)[O-])c(C)cc1N=Nc1c(O)ccc2cc(S(=O)(=O)[O-])ccc12.[Na+].[Na+] [Allura Red, Allura Red AC]	increased biofilm reduction compared to light alone

Test system: TNFα of HEPM cells stimulated by IL-1β
Assay: Cytokine (TNFα) concentration in IL-1β stimulated cell culture after light plus dye
Format: cell-based, human
Conditions: Fast Green at 1000 ppm combined with light at 625 nm for 2 minutes, 9 mW/cm^2, 1.1 J/cm^2
Procedure: Cells used in this example include human embryonic palatal mesenchymal (HEPM) cells and oral keratinocytes OBA9 cells. The embodiments also can be used with other cells such as human gingival fibroblasts (HGF). Cells were seeded in 24-well plates and cultured until reaching a confluence above 80%. The confluent-stage cells were treated with stimulants such as IL-1β followed by light irradiation alone, or light irradiation combined with GRAS photosensitizing dye. The cells were either pre-incubated in photosensitizing dye before light exposure, or administered at the same time of light exposure. The cells were incubated in photosensitizing dyes for varied amounts of time, the concentration of photosensitizing dyes were varied, and the cell were irradiated with light for varied amounts of time per exposure, as well as irradiation either one time or multiple times, as described below. After irradiation, the cells were incubated at 37° C. The cell culture media was collected after a certain amount of time for cytokine analysis.
The results tabulated below reveal that visible light (various wavelength, 380-700 nm) alone and photosensitizing dye irradiated with visible light (various wavelength, 380-700 nm) have anti-inflammation effect. […]

Compound	Effect on TNFα concentration (in words)
CCN(Cc1cccc(S(=O)(=O)[O-])c1)c1ccc(C(=C2C=CC(=[N+](CC)Cc3cccc(S(=O)(=O)[O-])c3)C=C2)c2ccc(O)cc2S(=O)(=O)[O-])cc1.[Na+].[Na+] [Fast Green, Fast Green FCF]	can decrease pro-inflammation cytokine TNFα concentration; also recorded: can reduce concentration of TNFα
